Tested on: NI16 promoter fragment 274 bp
Test: GUS florescence assay of promoter::GUS plants after SA application, NI16 274 bp fragment
Assay type: in vivo, Arabidopsis
Conditions: 5 mM SA spray
Text: A binary promoter::reporter plasmid (pNOV2374) for Arabidopsis transformation was constructed. The regulatory/promoter sequence was fused to the GUS reporter gene (Jefferson et al. (1987) EMBO J 6: 3901-3907) by recombination using […] Technology according to the manufacturer's protocol as described in the Instruction Manual (LifeTechnologies, Rockville, Md.). The construct was then transformed into Agrobacterium tumefaciens strains by electroporation. pNOV2374 is a binary vector with a VS1 origin of replication, a copy of the Agrobacterium virg gene in the backbone, and a Basta® resistance selectable marker cassette between the left and right border sequences of the T-DNA. The Basta® selectable marker cassette comprises the Agrobacterium tumefaciens manopine synthase promoter (AtMas) (Barker et al., Plant Mol. Biol. 2, 335-350 (1983)) operably linked to the gene encoding Basta® resistance (i.e., the “BAR” gene, phosphinothricin acetyl transferase) (White et al., Nucl Acids Res 18: 1062 (1990)) and the 35S terminator. The AtMas promoter, the BAR coding sequence, and the 35S terminator are located at nt 4211 to nt 4679, nt 4680 to nt 5228, and nt 5263 to nt 5488, respectively, of pNOV2374. The vector contains […] recombination components, which were introduced into the binary vector backbone by ligating a blunt-ended cassette containing attR sites, ccdB, and a cholramphenicol resistance marker using the […] Vector Conversion System (LifeTechnologies, Rockville, Md.). The […] cassette was located between nt 126 and 1818 of pNOV2374. The promoter cassettes were inserted through an LR recombination reaction whereby the DNA sequence of pNOV2374 between nt 126 and nt 1818 were removed and replaced with the promoter of interest flanked by att sequences. […] The GIG gene (SEQ ID NO:29) contains the ST-LS1 intron from Solanum tuberosum at nt 385 to nt 576 of GUS (obtained from Dr. Stanton […], Purdue University, and described in Narasimhulu, et al. (1996) Plant Cell 8: 873-886.). […] The treatment was applied as a fine mist to the leaves. […] For quantitative analysis of promoter activity following induction treatments or in various Arabidopsis tissues and organs, GUS expression is measured florometrically. Tissue samples were harvested and ground in ice cold GUS extraction buffer (50 mM Na2HPO4 pH 7.0, 5 mM DTT, 1 mM Na2EDTA, 0.1% TritonX100, 0.1% sarcosyl). Ground samples were spun in a microfuge at 10,000 rpm for 15 minutes at 4° C. Following centrifugation, the supernatant was removed for the GUS assay and for a protein concentration determination. To measure GUS activity, the plant extract was assayed in GUS assay buffer (50 mM Na2HPO4 pH 7.0, 5 mM DTT, 1 mM Na2EDTA, 0.1% TritonX100, 0.1% sarcosyl, 1 mM 4-Methylumbelliferyl-beta-D-glucuronic acid dihydrate (MUG)), pre-warmed to 37° C. Reactions were incubated, and 100 uL aliquots were removed at 10 minute intervals over 30 minutes to stop the reaction by adding the 100 uL aliquots to tubes containing 900 uL of 2% Na2CO3. The stopped reactions were then read on a Tecan Spectroflourometer at 365 nm excitation and 455 emission wavelengths. Protein concentrations were determined using the BCA assay following the manufacturer's protocol. GUS activity is expressed as pmol MU/mg protein/min.

Structure (SMILES): O=C(O)c1ccccc1O [SA, salicylic acid]
- GUS Activity Induced by SA (2 h): 27.5 pmol/mg protein/min
- GUS activity Fold-change relative to T0 (uninduced) (2 h): 1.4 fold
- GUS Activity Induced by SA (4 h): 58.7 pmol/mg protein/min
- GUS activity Fold-change relative to T0 (uninduced) (4 h): 3.0 fold
- GUS Activity Induced by SA (8 h): 150.8 pmol/mg protein/min
- GUS activity Fold-change relative to T0 (uninduced) (8 h): 7.8 fold
- GUS Activity Induced by SA (24 h): 230.3 pmol/mg protein/min

Reference: US7199286B2, “Plant-derived novel pathogen and SAR-induction chemical induced promoters, and fragments thereof” (Syngenta Participations AG, priority 1999, dated 2007)
